Measured values: patent US9302999B2, “Substituted triazoles as herbicides” (E. I. DU PONT DE NEMOURS AND COMPANY, priority 2012, dated 2016)

How the values were obtained:
Format in all cases: in vivo
[1] = tested on: waterhemp (common waterhemp, Amaranthus rudis); experiment: Test F pre-/postemergence: waterhemp
Description: (§1) Seeds of plant species selected from corn (Zea mays), soybean (Glycine max), velvetleaf (Abutilon theophrasti), lambsquarters (Chenopodium album), poinsettia, wild (wild poinsettia, Euphorbia heterophylla), pigweed, palmer (palmer pigweed, Amaranthus palmeri), waterhemp (common waterhemp, Amaranthus rudis), surinam grass (Brachiaria decumbens), crabgrass, Brazil (Brazilian crabgrass, Digitaria horizontalis), panicum, fall (fall panicum Panicum dichotomiflorum), crabgrass, large (large crabgrass, Digitaria sanguinalis), foxtail, giant (giant foxtail, Setaria faberii), foxtail, green (green foxtail Setaria viridis), goosegrass (Eleusine indica), ragweed (common ragweed, Ambrosia elatior), barnyardgrass (Echinochloa crus-galli), sandbur (southern sandbur, Cenchrus echinatus), arrowleaf sida (Sida rhombifolia), ryegrass, Italian (Italian ryegrass, Lolium multiflorum), dayflower, VA (Virginia (VA) dayflower, Commelina virginica), field bindweed (Convolvulus arvensis), cocklebur (common cocklebur, Xanthium strumarium), morningglory (Ipomoea coccinea), nightshade (eastern black nightshade, Solanum ptycanthum), kochia (Kochia scoparia), nutsedge, yellow (yellow nutsedge, Cyperus esculentus), johnsongrass (Sorghum halepense), smartweed (ladysthumb smartweed, Polygonum persicaria), and beggarticks (hairy beggarticks, Bidens pilosa), were planted into a silt loam soil and treated preemergence with test chemicals formulated in a non-phytotoxic solvent mixture which included a surfactant. At the same time, plants selected from these crop and weed species and also pigweed (Amaranthus retroflexus), waterhemp_RES1 (ALS/Triazine resistant common waterhemp, Amaranthus rudis) and waterhemp_RES2 (ALS/HPPD resistant common waterhemp, Amaranthus rudis) were planted in pots containing a planting medium comprising spaghnum peat moss, vermiculite, wetting agent and starter nutrients treated with postemergence applications of some of the test chemicals formulated in the same manner. Plants ranged in height from 2 to 18 cm for postemergence treatments (1- to 4-leaf stage).
(§2) Treated plants and controls were maintained in a greenhouse for 14 to 21 days, after which time all species were compared to controls and visually evaluated. Plant response ratings, summarized in Table E, are based on a scale of 0 to 100 where 0 is no effect and 100 is complete control. A dash (-) response means no test result.

[2] = tested on: speedwell (bird's-eye speedwell, Veronica persica); experiment: Test D pre-/postemergence: speedwell; conditions: Preemergence
In short: (§3)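 Visual 0–100 rating versus untreated controls (0 no effect, 100 complete control), taken 14 to 21 days after treatment in a controlled growth environment. Preemergence: silt loam soil. Postemergence: peat moss/vermiculite medium, plants 2 to 18 cm, 1- to 4-leaf stage. Solvent mixture with surfactant.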

[3] = tested on: field violet (Viola arvensis); experiment: Test D pre-/postemergence: field violet
In short: as §3

[4] = tested on: velvetleaf (Abutilon theophrasti); experiment: Test F pre-/postemergence: velvetleaf; conditions: Preemergence
In short: (§4)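 Visual response scores, 0 meaning no effect and 100 complete control, were assigned against untreated controls 14 to 21 days after treatment. Test chemicals in a surfactant-containing non-phytotoxic solvent were applied preemergence to seeded silt loam soil or postemergence to 2–18 cm plants in peat-based medium.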

[5] = tested on: barley, winter (winter barley, Hordeum vulgare); experiment: Test D pre-/postemergence: barley, winter
In short: as §3

[6] = tested on: cocklebur (common cocklebur, Xanthium strumarium); experiment: Test F pre-/postemergence: cocklebur; conditions: Preemergence
In short: as §4

[7] = tested on: field bindweed (Convolvulus arvensis); experiment: Test F pre-/postemergence: field bindweed
In short: as §4

[8] = tested on: windgrass (Apera spica-venti); experiment: Test D pre-/postemergence: windgrass
In short: as §3

[9] = tested on: nutsedge, yellow (yellow nutsedge, Cyperus esculentus); experiment: Test F pre-/postemergence: nutsedge, yellow; conditions: Preemergence
Description: as §1, §2

[10] = tested on: field poppy (Papaver rhoeas); experiment: Test D pre-/postemergence: field poppy
In short: as §3

[11] = Preemergence, 125 g ai/ha, scale 0 to 100
[12] = Preemergence, 250 g ai/ha, scale 0 to 100
[13] = 16 g ai/ha, scale 0 to 100, 0 no effect, 100 complete control
[14] = 31 g ai/ha, scale 0 to 100, 0 no effect, 100 complete control
[15] = Postemergence, 31 g ai/ha, scale 0 to 100 (0 no effect, 100 complete control)
[16] = Postemergence, 62 g ai/ha, scale 0 to 100 (0 no effect, 100 complete control)
[17] = Postemergence, 125 g ai/ha, scale 0 to 100, 0 no effect, 100 complete control
[18] = Postemergence, 16 g ai/ha, scale 0 to 100
[19] = Preemergence, 16 g ai/ha, scale 0 to 100, 0 no effect, 100 complete control
[20] = Preemergence, 31 g ai/ha, scale 0 to 100, 0 no effect, 100 complete control
[21] = Preemergence, 62 g ai/ha, scale 0 to 100
[22] = Postemergence, 31 g ai/ha, scale 0 to 100
[23] = Postemergence, 250 g ai/ha, scale 0 to 100
[24] = Postemergence, 62 g ai/ha, scale 0 to 100
[25] = Postemergence, 125 g ai/ha, scale 0 to 100

CCc1nn(-c2ccc(C(F)(F)F)cc2)nc1Cc1ccnc(C(F)(F)F)c1 [Compound 155]
Plant response rating, Waterhemp [1, 11]: 100 | Plant response rating, Waterhemp [1, 12]: 100 | Plant response rating, Speedwell [2, 13]: 100 | Plant response rating, Speedwell [2, 14]: 100 | Plant response rating, Speedwell ([2]; 62 g ai/ha, scale 0 to 100): 100 | Plant response rating, Speedwell ([2]; 125 g ai/ha, scale 0 to 100): 100 | Plant response rating: Field Violet [3, 15]: 100 | Plant response rating: Field Violet [3, 16]: 100 | Plant response rating: Field Violet [3, 17]: 95 | Plant response rating, Field Violet [3, 18]: 95 | Plant response rating, Field Violet [3, 19]: 90 | Plant response rating, Field Violet [3, 20]: 95 | Plant response rating, Field Violet [3, 21]: 95 | Plant response rating, Field Violet [3, 11]: 100 | Plant response rating, Velvetleaf ([4]; 125 g ai/ha, scale 0 to 100): 98 | Plant response rating, Velvetleaf ([4]; 250 g ai/ha, scale 0 to 100): 98 | Plant response rating: Barley, Winter [5, 15]: 20 | Plant response rating: Barley, Winter [5, 16]: 25 | Plant response rating: Barley, Winter [5, 17]: 35 | Plant response rating, Barley, Winter [5, 18]: 15 | Plant response rating, Barley, Winter [5, 19]: 5 | Plant response rating, Barley, Winter [5, 20]: 0 | Plant response rating, Barley, Winter [5, 21]: 5 | Plant response rating, Barley, Winter [5, 11]: 10 | Plant response rating, Cocklebur ([6]; 62 g ai/ha, scale 0 to 100): 0 | Plant response rating, Cocklebur ([6]; 125 g ai/ha, scale 0 to 100): 40 | Plant response rating, Cocklebur ([6]; 250 g ai/ha, scale 0 to 100): 40 | Plant response rating, Field Bindweed [7, 21]: 85 | Plant response rating, Field Bindweed [7, 11]: 95 | Plant response rating, Field Bindweed [7, 12]: 100 | Plant response rating: Windgrass [8, 16]: 80 | Plant response rating: Windgrass [8, 17]: 95 | Plant response rating, Windgrass [8, 18]: 20 | Plant response rating, Windgrass [8, 22]: 70 | Plant response rating, Windgrass [8, 19]: 5 | Plant response rating, Windgrass [8, 20]: 10 | Plant response rating, Windgrass [8, 21]: 85 | Plant response rating, Windgrass [8, 11]: 100 | Plant response rating, Nutsedge, Yellow ([9]; 125 g ai/ha, scale 0 to 100): 25 | Plant response rating, Nutsedge, Yellow ([9]; 250 g ai/ha, scale 0 to 100): 30 | Plant response rating: Field Poppy [10, 15]: 95 | Plant response rating: Field Poppy [10, 16]: 100 | Plant response rating: Field Poppy [10, 17]: 100 | Plant response rating, Field Poppy [10, 18]: 80 | Plant response rating, Field Poppy [10, 19]: 80 | Plant response rating, Field Poppy [10, 20]: 95 | Plant response rating, Field Poppy [10, 21]: 95 | Plant response rating, Field Poppy [10, 11]: 100

CCc1nn(-c2ccc(F)cc2)nc1Cc1ccnc(C(F)(F)F)c1 [Compound 154]
Plant response rating, Waterhemp [1, 19]: 50 | Plant response rating, Waterhemp [1, 20]: 60 | Plant response rating, Waterhemp [1, 11]: 100 | Plant response rating, Waterhemp [1, 12]: 100 | Plant response rating, Velvetleaf [4, 13]: 0 | Plant response rating, Velvetleaf [4, 14]: 20 | Plant response rating, Velvetleaf ([4]; 125 g ai/ha, scale 0 to 100): 40 | Plant response rating, Velvetleaf ([4]; 250 g ai/ha, scale 0 to 100): 100 | Plant response rating, Cocklebur [6, 13]: 0 | Plant response rating, Cocklebur ([6]; 62 g ai/ha, scale 0 to 100): 0 | Plant response rating, Cocklebur ([6]; 250 g ai/ha, scale 0 to 100): 0 | Plant response rating, Field Bindweed [7, 19]: 0 | Plant response rating, Field Bindweed [7, 20]: 0 | Plant response rating, Field Bindweed [7, 21]: 5 | Plant response rating, Field Bindweed [7, 11]: 35 | Plant response rating, Field Bindweed [7, 12]: 95 | Plant response rating, Nutsedge, Yellow [9, 13]: 0 | Plant response rating, Nutsedge, Yellow [9, 14]: 0 | Plant response rating, Nutsedge, Yellow ([9]; 125 g ai/ha, scale 0 to 100): 0 | Plant response rating, Nutsedge, Yellow ([9]; 250 g ai/ha, scale 0 to 100): 0

CCc1nn(-c2ccc(C(F)(F)F)cc2)nc1Oc1ccnc(C(F)(F)F)c1 [Compound 169]
Plant response rating, Waterhemp [1, 23]: 100 | Plant response rating, Waterhemp [1, 18]: 75 | Plant response rating, Waterhemp [1, 22]: 90 | Plant response rating, Waterhemp [1, 24]: 90 | Plant response rating, Waterhemp [1, 25]: 100 | Plant response rating, Waterhemp [1, 19]: 60 | Plant response rating, Waterhemp [1, 20]: 80 | Plant response rating, Waterhemp [1, 11]: 100 | Plant response rating, Waterhemp [1, 12]: 100 | Plant response rating, Velvetleaf [4, 13]: 0 | Plant response rating, Velvetleaf [4, 14]: 0 | Plant response rating, Velvetleaf ([4]; 125 g ai/ha, scale 0 to 100): 60 | Plant response rating, Velvetleaf ([4]; 250 g ai/ha, scale 0 to 100): 100 | Plant response rating, Cocklebur [6, 13]: 0 | Plant response rating, Cocklebur [6, 14]: 0 | Plant response rating, Cocklebur ([6]; 62 g ai/ha, scale 0 to 100): 0 | Plant response rating, Field Bindweed [7, 23]: 55 | Plant response rating, Field Bindweed [7, 18]: 20 | Plant response rating, Field Bindweed [7, 22]: 20 | Plant response rating, Field Bindweed [7, 24]: 30 | Plant response rating, Field Bindweed [7, 25]: 35 | Plant response rating, Field Bindweed [7, 19]: 0 | Plant response rating, Field Bindweed [7, 20]: 0 | Plant response rating, Field Bindweed [7, 11]: 20 | Plant response rating, Field Bindweed [7, 12]: 80 | Plant response rating, Nutsedge, Yellow [9, 13]: 0 | Plant response rating, Nutsedge, Yellow [9, 14]: 20 | Plant response rating, Nutsedge, Yellow ([9]; 125 g ai/ha, scale 0 to 100): 25 | Plant response rating, Nutsedge, Yellow ([9]; 250 g ai/ha, scale 0 to 100): 25
